{
  "source": "patent US5169758A",
  "about": "(Boehringer Mannheim GmbH, priority 1986, dated 1992)",
  "system": "NAD(P)H-dependent, soluble nitrate reductase of the assimilatory type (E.C. 1.6.6.2) from mould fungus",
  "details": "nitrite acts as inhibitor above this concentration",
  "data": [
    {"smiles": "O=NO", "note": "[nitrite]", "values": [
      {"measurement": "Inhibitor concentration (product inhibition)", "result": "more than 10^-4 M"}
    ]}
  ]
}
